Earlier results, collected in patent publication US10653698B2, “Methods of improving myocardial performance in Fontan patients using udenafil compositions” (priority 2014, dated 2020).

Key:
[1] = test system: children and young adults with single-ventricle physiology after the Fontan operation; settings: Shabanian et al. 2013; cited from earlier work
[2] = test system: patients with Fontan circulation; settings: short term, once daily dosing; cited from earlier work

Row | SMILES | ventricular systolic elastance [1] | ventriculo-arterial coupling [1] | exercise capacity [2] | ventilatory efficiency and oxygen saturation [2]
1 | CCCc1nn(C)c2c(=O)[nH]c(-c3cc(S(=O)(=O)N4CCN(C)CC4)ccc3OCC)nc12 [sildenafil] | increased | improved | – | –
2 | CN1CC(=O)N2[C@H](c3ccc4c(c3)OCO4)c3[nH]c4ccccc4c3C[C@@H]2C1=O [tadalafil] | – | – | unchanged | improved
